One sequence from paper PMC9774438, “Effects of Synthetic Short Cationic Antimicrobial Peptides on the Catalytic Activity of Myeloperoxidase, Reducing Its Oxidative Capacity” (Antioxidants, 2022) can be followed below.

Holding throughout (assay type): biochemical
Assay [1] deals with T1, myeloperoxidase (MPO) (Homo sapiens, UniProt P05164).
T1 construct: Native myeloperoxidase (MPO) was obtained from human leukocyte extract by successive chromatography on heparin-Sepharose and phenyl-agarose; from tissue; host or cells: human leukocyte extract
T1 sequence (P05164 279-745 limits assumed): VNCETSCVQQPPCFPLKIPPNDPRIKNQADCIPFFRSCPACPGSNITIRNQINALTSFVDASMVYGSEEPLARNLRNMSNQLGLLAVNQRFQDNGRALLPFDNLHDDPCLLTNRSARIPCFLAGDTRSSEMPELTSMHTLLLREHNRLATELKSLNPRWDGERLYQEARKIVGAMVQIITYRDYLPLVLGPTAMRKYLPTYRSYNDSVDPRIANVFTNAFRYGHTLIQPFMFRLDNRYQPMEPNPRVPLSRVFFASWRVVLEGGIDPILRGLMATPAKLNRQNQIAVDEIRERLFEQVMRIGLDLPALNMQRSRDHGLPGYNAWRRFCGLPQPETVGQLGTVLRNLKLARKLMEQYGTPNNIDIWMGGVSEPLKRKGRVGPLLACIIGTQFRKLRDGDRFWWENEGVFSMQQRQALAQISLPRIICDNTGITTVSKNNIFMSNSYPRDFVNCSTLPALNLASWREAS
T1 sequence (P05164 165-273 limits assumed): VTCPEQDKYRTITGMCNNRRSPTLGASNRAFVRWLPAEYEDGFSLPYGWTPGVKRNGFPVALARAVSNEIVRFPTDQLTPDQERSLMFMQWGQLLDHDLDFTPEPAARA
As to the kind of experiment: MPO chlorinating activity (Celestine Blue B assay). Conditions: 0.008–8 μM peptide, 0.8 nM MPO heme, 200 μM CB, 150 mM NaCl, 50 μM H2O2, 50 mM Na-acetate pH 5.5. Here is the method:
MPO chlorinating activity was evaluated fluorometrically using Celestine Blue B (CB) which was oxidized to fluorescent glycol (λex = 487 nm, λem = 578 nm) by taurine N-chloramine produced in the reaction of taurine with HOCl generated by MPO [39]. The assay was performed in 96-plate format. MPO was preincubated with peptides for 5 min in a volume of 100 μL, with the concentrations being: MPO, 1.6 nM heme and peptide, 16 nM–16 μM. Then, 100 μL aliquots of CB-containing mix (CB, 400 µM; H2O2, 100 µM; taurine, 4 mM; KI, 10 µM; NaCl, 300 mM; 50 mM Na-acetate buffer, pH 5.5) were added to MPO/peptide and to 100 μL of HOCl standards (0–150 μM). The fluorescence measurement was made with a CLARIOstar multimodal plate reader (BMG Labtech, Ortenberg, Germany) at 15 min after the reaction started. Fluorescence intensity detected for HOCl standards of HOCl was used for calculating the chlorinating activity as mole of HOCl per mole of MPO heme per second. To determine the type of CAMP-induced inhibition, KM and Vmax were obtained by varying substrates of MPO: NaCl in a final concentration from 25 to 300 mM, or H2O2 in a final concentration from 5 to 80 µM.
(§1) The Hannes-Wolf plots were made as ([Substrate]/V = f([Substrate]). KM was equal in magnitude to the intercept made on the abscissa axis by the approximating straight line; Vmax was calculated as a reciprocal value of the straight-line slope. The inhibition constant (Ki) for noncompetitive inhibition was calculated as follows: Ki = [I]/((Vmax − Vmax’)/Vmax’); Ki for competitive inhibition was calculated as follows: Ki = [I]/((KM’ − KM)/KM); Ki for mixed inhibition was calculated as follows: Ki = [I]/(((KM’ − KM)/KM)^2 + ((Vmax − Vmax’)/Vmax’))^2)^0.5; and Ki for uncompetitive inhibition was calculated as follows: Ki = [I]/(((KM − KM’)/KM’)^2 + ((Vmax – Vmax’)/Vmax’))^2)^0.5, where [I]—concentration of inhibitor (CAMP), KM—Michaelis constant without inhibitor, Vmax—maximal rate without inhibitor, KM’—Michaelis constant in the presence of inhibitor, Vmax’—maximal rate in the presence of inhibitor.
Chlorinating activity is a distinctive feature of MPO as compared with other peroxidases and it is an important property, enabling MPO to combat microbes. We tested whether the inhibitory effects of pept_1545 and Hm-AMP8 on peroxidase activity extend to MPO chlorinating activity. Chlorinating activity was measured using a fluorometric CB-based assay. To determine the concentration dependence of the effect of CAMPs on MPO chlorinating activity, the 0.008–8 μM concentration range (corresponding to 10–10,000 peptide molecules per heme) was used.

Assay [2] concerns the target T1, myeloperoxidase (MPO). In words: MPO peroxidase activity (Amplex Red assay). Conditions: 0.8–50 μM peptide, 8 nM MPO heme, 50 μM Amplex Red, 25 μM H2O2, 50 mM K-phosphate pH 7.4. On the procedure:
MPO peroxidase activity was evaluated fluorometrically using Amplex Red^TM reagent which was oxidized by MPO to the fluorescent resorufin (λex = 530 nm, λem = 590 nm). The assay was performed in 96-plate format. The final reaction mixture in 50 mM K-phosphate buffer (pH 7.4) was as follows: MPO, 8 nM heme; peptide, […]; H2O2, 25 μM; Amplex Red reagent, 50 μM. MPO was preincubated with peptides for 5 min in a volume of 100 μl. Then, Amplex Red was added, and the enzymatic reaction was initiated by adding H2O2 (a final probe volume of 200 μL per well). The fluorescence measurement was made with a CLARIOstar multimodal plate reader (BMG Labtech, Ortenberg, Germany) at 5 min after the beginning of the reaction. To determine the type of CAMP-induced inhibition, KM and Vmax were obtained by varying substrates of MPO: Amplex Red in a final concentration from 1 to 62.5 μM, or H2O2 in a final concentration from 0.625 to 20 μM.
as §1
From the experiments with varying concentrations of H2O2 (0.01–200 μM) and Amplex Red (6.25–100 μM), the optimal concentrations of 25 μM H2O2 and 50 μM Amplex Red were chosen for further work. The 0.8–50 μM concentration range (corresponding to 100–6250 peptide molecules per heme) was used to determine the concentration dependence of the effect of CAMPs on peroxidase activity of MPO.

Assay [3] deals with T1, myeloperoxidase (MPO). As to the kind of experiment: Electrospray mass spectrometry of dityrosine cross-linked peptide dimer. To be noted: 40 μM peptide, 0.4 μM MPO heme, 50 μM H2O2, 10 mM Na-phosphate; ESI-MS positive mode. Here is the method:
Mass spectra were acquired using an Orbitrap Q Exactive HF-X mass spectrometer equipped with HESI source in the positive ion mode (Thermo Fisher Scientific, Waltham, MA, USA). Direct infusion syringe pump sampling was carried out with a […] Hamilton syringe at a flow rate of […]. The spray voltage was set at +3.5 kV, the sheath and auxiliary gas flow rate at 5 and 1, respectively; the S-lens RF level at 65; the capillary temperature at 250 °C. The resolution was set at 240,000, the AGC target at 1E6, and the maximum injection time at 50 ms. A summary spectrum was collected over 4 min and used for calculating S/N and measuring peak intensities. Before analysis, desalting of samples was carried out using C-18 ZIP-TIP (Millipore, Billerica, MA, USA), according to the manufacturer’s instructions. The eluate was mixed with 0.1% formic acid in DI water (18 MOhm) to a volume of 100 μL. The solutions prepared were used for direct infusion.
Additional proof for dityrosine formation upon incubation of Hm-AMP2 with H2O2-activated MPO was obtained by electrospray mass spectrometry which allowed the detection of a peptide product of the molecular weight of the dityrosine cross-linked peptide dimer. Dimerization of peptides via initial formation of a tyrosyl radical results in a 2 Da decrease in the double mass of the peptide to [2M − 2H]. […]

“Also recorded” adds a separate entry of the source.

“EKRWRRLIFNYF [Hm-AMP2, synthetic cationic antimicrobial peptide …]”: in assay [1], the “effect on MPO chlorinating activity” value was “no significant effect”. For the same sequence, the “effect on MPO peroxidase activity” value in assay [2] is recorded as “no inhibition; also recorded: No effect”. In addition, the “increase of [2M − 2H + 3H]3+ dimer ion signal (m/z 1152.4) vs control” value in assay [3] turned out to be 20 fold.
